Source: patent US20260130395A1, “Water Dispersible Botanical Compositions” (Aquila Black Limited, priority 2021, published 2026)

Assays:
[1] = Stability of cannabinoid compounds and Vitamin E components in Beverage 1 (AB White) by LCMSMS; format: physicochemical; settings: for Stability of Plant-Derived Cannabinoid Compounds in AB White, 8° C.: AB White stored at 8° C.; for Stability of Plant-Derived Cannabinoid Compounds in AB White, 21-25° C.: AB White stored at 21-25° C.
[2] = Stability of cannabinoid entourage and Vitamin E components of the powder concentrate by LCMSMS; format: physicochemical; settings: powder stored at 21-25° C.
Method: At each time period, 0.05 g of powder was dissolved in 10 ml-15 of ethanol, diluted to fall within the analytical range, and injected into the LCMSMS for analysis.

## CCCCCc1cc(O)c2c(c1)OC(C)(C)c1ccc(C)cc1-2 [CBN, cannabinol]
[1]; 0 days
  Stability of Plant-Derived Cannabinoid Compounds in AB White, 8° C.: 2.79 µg/mL
  Stability of Plant-Derived Cannabinoid Compounds in AB White, 21-25° C.: 2.79 µg/mL
[1]; 1 days
  Stability of Plant-Derived Cannabinoid Compounds in AB White, 8° C.: 2.77 µg/mL
  Stability of Plant-Derived Cannabinoid Compounds in AB White, 21-25° C.: 2.79 µg/mL
[1]; 2 days
  Stability of Plant-Derived Cannabinoid Compounds in AB White, 8° C.: 2.72 µg/mL
  Stability of Plant-Derived Cannabinoid Compounds in AB White, 21-25° C.: 2.81 µg/mL
[1]; 3 days
  Stability of Plant-Derived Cannabinoid Compounds in AB White, 8° C.: 2.73 µg/mL
  Stability of Plant-Derived Cannabinoid Compounds in AB White, 21-25° C.: 2.73 µg/mL
[1]; 5 days
  Stability of Plant-Derived Cannabinoid Compounds in AB White, 8° C.: 2.76 µg/mL
  Stability of Plant-Derived Cannabinoid Compounds in AB White, 21-25° C.: 2.80 µg/mL
[1]; 8 days
  Stability of Plant-Derived Cannabinoid Compounds in AB White, 8° C.: 2.75 µg/mL
  Stability of Plant-Derived Cannabinoid Compounds in AB White, 21-25° C.: 2.71 µg/mL
[1]; 9 days
  Stability of Plant-Derived Cannabinoid Compounds in AB White, 8° C.: 2.76 µg/mL
  Stability of Plant-Derived Cannabinoid Compounds in AB White, 21-25° C.: 2.78 µg/mL
[1]; 10 days
  Stability of Plant-Derived Cannabinoid Compounds in AB White, 8° C.: 2.79 µg/mL
  Stability of Plant-Derived Cannabinoid Compounds in AB White, 21-25° C.: 2.77 µg/mL
[1]; 11 days
  Stability of Plant-Derived Cannabinoid Compounds in AB White, 8° C.: 2.71 µg/mL
  Stability of Plant-Derived Cannabinoid Compounds in AB White, 21-25° C.: 2.80 µg/mL
[1]; 12 days
  Stability of Plant-Derived Cannabinoid Compounds in AB White, 8° C.: 2.80 µg/mL
  Stability of Plant-Derived Cannabinoid Compounds in AB White, 21-25° C.: 2.75 µg/mL
[1]; 15 days
  Stability of Plant-Derived Cannabinoid Compounds in AB White, 8° C.: 2.79 µg/mL
  Stability of Plant-Derived Cannabinoid Compounds in AB White, 21-25° C.: 2.81 µg/mL
[1]; 16 days
  Stability of Plant-Derived Cannabinoid Compounds in AB White, 8° C.: 2.77 µg/mL
  Stability of Plant-Derived Cannabinoid Compounds in AB White, 21-25° C.: 2.75 µg/mL
[1]; 17 days
  Stability of Plant-Derived Cannabinoid Compounds in AB White, 8° C.: 2.82 µg/mL
  Stability of Plant-Derived Cannabinoid Compounds in AB White, 21-25° C.: 2.70 µg/mL
[1]; 18 days
  Stability of Plant-Derived Cannabinoid Compounds in AB White, 8° C.: 2.71 µg/mL
  Stability of Plant-Derived Cannabinoid Compounds in AB White, 21-25° C.: 2.78 µg/mL
[1]; 19 days
  Stability of Plant-Derived Cannabinoid Compounds in AB White, 8° C.: 2.71 µg/mL
  Stability of Plant-Derived Cannabinoid Compounds in AB White, 21-25° C.: 2.73 µg/mL
[1]; 22 days
  Stability of Plant-Derived Cannabinoid Compounds in AB White, 8° C.: 2.76 µg/mL
  Stability of Plant-Derived Cannabinoid Compounds in AB White, 21-25° C.: 2.69 µg/mL
[1]; 23 days
  Stability of Plant-Derived Cannabinoid Compounds in AB White, 8° C.: 2.71 µg/mL
  Stability of Plant-Derived Cannabinoid Compounds in AB White, 21-25° C.: 2.68 µg/mL
[1]; 24 days
  Stability of Plant-Derived Cannabinoid Compounds in AB White, 8° C.: 2.75 µg/mL
  Stability of Plant-Derived Cannabinoid Compounds in AB White, 21-25° C.: 2.79 µg/mL
[1]; 25 days
  Stability of Plant-Derived Cannabinoid Compounds in AB White, 8° C.: 2.75 µg/mL
  Stability of Plant-Derived Cannabinoid Compounds in AB White, 21-25° C.: 2.75 µg/mL
[1]; 26 days
  Stability of Plant-Derived Cannabinoid Compounds in AB White, 8° C.: 2.76 µg/mL
  Stability of Plant-Derived Cannabinoid Compounds in AB White, 21-25° C.: 2.69 µg/mL
[1]; 29 days
  Stability of Plant-Derived Cannabinoid Compounds in AB White, 8° C.: 2.76 µg/mL
  Stability of Plant-Derived Cannabinoid Compounds in AB White, 21-25° C.: 2.75 µg/mL
[1]; 30 days
  Stability of Plant-Derived Cannabinoid Compounds in AB White, 8° C.: 2.78 µg/mL
  Stability of Plant-Derived Cannabinoid Compounds in AB White, 21-25° C.: 2.72 µg/mL
[1]; 60 days
  Stability of Plant-Derived Cannabinoid Compounds in AB White, 8° C.: 2.68 µg/mL
  Stability of Plant-Derived Cannabinoid Compounds in AB White, 21-25° C.: 2.63 µg/mL
[1]; 90 days
  Stability of Plant-Derived Cannabinoid Compounds in AB White, 8° C.: 2.74 µg/mL
  Stability of Plant-Derived Cannabinoid Compounds in AB White, 21-25° C.: 2.66 µg/mL
[1]; 120 days
  Stability of Plant-Derived Cannabinoid Compounds in AB White, 8° C.: 2.72 µg/mL
  Stability of Plant-Derived Cannabinoid Compounds in AB White, 21-25° C.: 2.67 µg/mL
[1]; 150 days
  Stability of Plant-Derived Cannabinoid Compounds in AB White, 8° C.: 2.69 µg/mL
  Stability of Plant-Derived Cannabinoid Compounds in AB White, 21-25° C.: 2.77 µg/mL
[1]; 180 days
  Stability of Plant-Derived Cannabinoid Compounds in AB White, 8° C.: 2.77 µg/mL
  Stability of Plant-Derived Cannabinoid Compounds in AB White, 21-25° C.: 2.68 µg/mL
[1]; 210 days
  Stability of Plant-Derived Cannabinoid Compounds in AB White, 8° C.: 2.75 µg/mL
  Stability of Plant-Derived Cannabinoid Compounds in AB White, 21-25° C.: 2.74 µg/mL
[1]; 240 days
  Stability of Plant-Derived Cannabinoid Compounds in AB White, 8° C.: 2.70 µg/mL
  Stability of Plant-Derived Cannabinoid Compounds in AB White, 21-25° C.: 2.71 µg/mL
[1]; 270 days
  Stability of Plant-Derived Cannabinoid Compounds in AB White, 8° C.: 2.75 µg/mL
  Stability of Plant-Derived Cannabinoid Compounds in AB White, 21-25° C.: 2.67 µg/mL
[1]; 300 days
  Stability of Plant-Derived Cannabinoid Compounds in AB White, 8° C.: 2.71 µg/mL
  Stability of Plant-Derived Cannabinoid Compounds in AB White, 21-25° C.: 2.73 µg/mL
[1]; 330 days
  Stability of Plant-Derived Cannabinoid Compounds in AB White, 8° C.: 2.75 µg/mL
  Stability of Plant-Derived Cannabinoid Compounds in AB White, 21-25° C.: 2.75 µg/mL
[1]; 360 days
  Stability of Plant-Derived Cannabinoid Compounds in AB White, 8° C.: 2.68 µg/mL
  Stability of Plant-Derived Cannabinoid Compounds in AB White, 21-25° C.: 2.67 µg/mL
[1]; 390 days
  Stability of Plant-Derived Cannabinoid Compounds in AB White, 8° C.: 2.67 µg/mL
  Stability of Plant-Derived Cannabinoid Compounds in AB White, 21-25° C.: 2.66 µg/mL
[1]; 420 days
  Stability of Plant-Derived Cannabinoid Compounds in AB White, 8° C.: 2.70 µg/mL
  Stability of Plant-Derived Cannabinoid Compounds in AB White, 21-25° C.: 2.62 µg/mL
[1]; 450 days
  Stability of Plant-Derived Cannabinoid Compounds in AB White, 8° C.: 2.70 µg/mL
  Stability of Plant-Derived Cannabinoid Compounds in AB White, 21-25° C.: 2.61 µg/mL
[1]; 480 days
  Stability of Plant-Derived Cannabinoid Compounds in AB White, 8° C.: 2.66 µg/mL
  Stability of Plant-Derived Cannabinoid Compounds in AB White, 21-25° C.: 2.57 µg/mL
[1]; 510 days
  Stability of Plant-Derived Cannabinoid Compounds in AB White, 8° C.: 2.60 µg/mL
  Stability of Plant-Derived Cannabinoid Compounds in AB White, 21-25° C.: 2.66 µg/mL
[1]; 540 days
  Stability of Plant-Derived Cannabinoid Compounds in AB White, 8° C.: 2.56 µg/mL
  Stability of Plant-Derived Cannabinoid Compounds in AB White, 21-25° C.: 2.63 µg/mL
[1]; 570 days
  Stability of Plant-Derived Cannabinoid Compounds in AB White, 8° C.: 2.56 µg/mL
  Stability of Plant-Derived Cannabinoid Compounds in AB White, 21-25° C.: 2.56 µg/mL
[2]; 0 days
  Stability of Plant-Derived Cannabinoid Compounds in Powder Concentrate: 0.480 mg/g powder
[2]; 1 days
  Stability of Plant-Derived Cannabinoid Compounds in Powder Concentrate: 0.471 mg/g powder
[2]; 2 days
  Stability of Plant-Derived Cannabinoid Compounds in Powder Concentrate: 0.488 mg/g powder
[2]; 3 days
  Stability of Plant-Derived Cannabinoid Compounds in Powder Concentrate: 0.474 mg/g powder
[2]; 5 days
  Stability of Plant-Derived Cannabinoid Compounds in Powder Concentrate: 0.491 mg/g powder
[2]; 8 days
  Stability of Plant-Derived Cannabinoid Compounds in Powder Concentrate: 0.469 mg/g powder
[2]; 9 days
  Stability of Plant-Derived Cannabinoid Compounds in Powder Concentrate: 0.466 mg/g powder
[2]; 10 days
  Stability of Plant-Derived Cannabinoid Compounds in Powder Concentrate: 0.499 mg/g powder
[2]; 11 days
  Stability of Plant-Derived Cannabinoid Compounds in Powder Concentrate: 0.494 mg/g powder
[2]; 12 days
  Stability of Plant-Derived Cannabinoid Compounds in Powder Concentrate: 0.496 mg/g powder
[2]; 15 days
  Stability of Plant-Derived Cannabinoid Compounds in Powder Concentrate: 0.472 mg/g powder
[2]; 16 days
  Stability of Plant-Derived Cannabinoid Compounds in Powder Concentrate: 0.483 mg/g powder
[2]; 17 days
  Stability of Plant-Derived Cannabinoid Compounds in Powder Concentrate: 0.465 mg/g powder
[2]; 18 days
  Stability of Plant-Derived Cannabinoid Compounds in Powder Concentrate: 0.470 mg/g powder
[2]; 19 days
  Stability of Plant-Derived Cannabinoid Compounds in Powder Concentrate: 0.490 mg/g powder
[2]; 22 days
  Stability of Plant-Derived Cannabinoid Compounds in Powder Concentrate: 0.486 mg/g powder
[2]; 23 days
  Stability of Plant-Derived Cannabinoid Compounds in Powder Concentrate: 0.469 mg/g powder
[2]; 24 days
  Stability of Plant-Derived Cannabinoid Compounds in Powder Concentrate: 0.465 mg/g powder
[2]; 25 days
  Stability of Plant-Derived Cannabinoid Compounds in Powder Concentrate: 0.486 mg/g powder
[2]; 26 days
  Stability of Plant-Derived Cannabinoid Compounds in Powder Concentrate: 0.486 mg/g powder
[2]; 29 days
  Stability of Plant-Derived Cannabinoid Compounds in Powder Concentrate: 0.484 mg/g powder
[2]; 30 days
  Stability of Plant-Derived Cannabinoid Compounds in Powder Concentrate: 0.476 mg/g powder
[2]; 60 days
  Stability of Plant-Derived Cannabinoid Compounds in Powder Concentrate: 0.489 mg/g powder
[2]; 90 days
  Stability of Plant-Derived Cannabinoid Compounds in Powder Concentrate: 0.483 mg/g powder
[2]; 120 days
  Stability of Plant-Derived Cannabinoid Compounds in Powder Concentrate: 0.498 mg/g powder
[2]; 150 days
  Stability of Plant-Derived Cannabinoid Compounds in Powder Concentrate: 0.500 mg/g powder
[2]; 180 days
  Stability of Plant-Derived Cannabinoid Compounds in Powder Concentrate: 0.464 mg/g powder
[2]; 210 days
  Stability of Plant-Derived Cannabinoid Compounds in Powder Concentrate: 0.501 mg/g powder
[2]; 240 days
  Stability of Plant-Derived Cannabinoid Compounds in Powder Concentrate: 0.467 mg/g powder
[2]; 270 days
  Stability of Plant-Derived Cannabinoid Compounds in Powder Concentrate: 0.464 mg/g powder
[2]; 300 days
  Stability of Plant-Derived Cannabinoid Compounds in Powder Concentrate: 0.469 mg/g powder
[2]; 330 days
  Stability of Plant-Derived Cannabinoid Compounds in Powder Concentrate: 0.502 mg/g powder
[2]; 360 days
  Stability of Plant-Derived Cannabinoid Compounds in Powder Concentrate: 0.499 mg/g powder
[2]; 390 days
  Stability of Plant-Derived Cannabinoid Compounds in Powder Concentrate: 0.479 mg/g powder
[2]; 420 days
  Stability of Plant-Derived Cannabinoid Compounds in Powder Concentrate: 0.481 mg/g powder
[2]; 450 days
  Stability of Plant-Derived Cannabinoid Compounds in Powder Concentrate: 0.480 mg/g powder
[2]; 480 days
  Stability of Plant-Derived Cannabinoid Compounds in Powder Concentrate: 0.485 mg/g powder
[2]; 510 days
  Stability of Plant-Derived Cannabinoid Compounds in Powder Concentrate: 0.499 mg/g powder
[2]; 540 days
  Stability of Plant-Derived Cannabinoid Compounds in Powder Concentrate: 0.492 mg/g powder
[2]; 570 days
  Stability of Plant-Derived Cannabinoid Compounds in Powder Concentrate: 0.471 mg/g powder
